Laboratory results as given in EP0025288A1, “Derivatives of monic acid, processes for their preparation, compositions containing them and their preparation” (priority 1979, dated 1981).

Experiments:
Assay type in all cases: cell-based
[1] = tested on: Bacillus subtilis 6633; test: MIC, human bacteria, serial dilution in nutrient agar; details: nutrient agar containing 5% 'chocolated' horse blood
[2] = tested on: S typhimurium S18; test: MIC, veterinary bacteria; details: veterinary bacteria (Table 2)
[3] = tested on: Strep pyogenes A 64/848; test: MIC, human bacteria, serial dilution in nutrient agar; details: nutrient agar containing 5% 'chocolated' horse blood
[4] = tested on: K aerogenes A; test: as above; details: nutrient agar containing 5% 'chocolated' horse blood
[5] = tested on: E coli NCTC 10418; test: MIC, veterinary bacteria; details: veterinary bacteria (Table 2)
[6] = tested on: Strep uberis SPU1; test: MIC, veterinary bacteria; details: veterinary bacteria (Table 2)
[7] = tested on: M pneumoniae ATCC 15492; test: MIC, anti-mycoplasmal, serial dilution in Friis' agar
[8] = tested on: M arthritidis ATCC 14124; test: as above
[9] = tested on: Staph aureus Oxford; test: MIC, human bacteria, serial dilution in nutrient agar; details: nutrient agar containing 5% 'chocolated' horse blood
[10] = tested on: Corynebacterium zerosis 9755; test: as above; details: nutrient agar containing 5% 'chocolated' horse blood
[11] = tested on: M fermentans MWKL4; test: MIC, anti-mycoplasmal, serial dilution in Friis' agar
[12] = tested on: Pasteurella multocida 1633; test: MIC, human bacteria, serial dilution in nutrient agar; details: nutrient agar containing 5% 'chocolated' horse blood
[13] = tested on: M fermentans MWKL4; test: MIC, anti-mycoplasmal, Friis' broth microtiter method
[14] = tested on: M suipneumoniae J2206/183b; test: as above
[15] = tested on: E coli ESS; test: MIC, human bacteria, serial dilution in nutrient agar; details: nutrient agar containing 5% 'chocolated' horse blood
[16] = tested on: Strep pyogenes C 2761; test: as above; details: nutrient agar containing 5% 'chocolated' horse blood
[17] = tested on: Past multocida PA1; test: MIC, veterinary bacteria; details: veterinary bacteria (Table 2)
[18] = tested on: E coli E1; test: MIC, veterinary bacteria; details: veterinary bacteria (Table 2)
[19] = tested on: M dispar NCTC 10125; test: MIC, anti-mycoplasmal, Friis' broth microtiter method
[20] = tested on: M pulmonis JB; test: MIC, anti-mycoplasmal, serial dilution in Friis' agar
[21] = tested on: P mirabilis 889; test: MIC, human bacteria, serial dilution in nutrient agar; details: nutrient agar containing 5% 'chocolated' horse blood
[22] = tested on: M pneumoniae 427a; test: MIC, anti-mycoplasmal, Friis' broth microtiter method
[23] = tested on: Haemophilus influenzae Q1; test: MIC, human bacteria, serial dilution in nutrient agar; details: nutrient agar containing 5% 'chocolated' horse blood
[24] = tested on: Past Haemolytica PA5; test: MIC, veterinary bacteria; details: veterinary bacteria (Table 2)
[25] = tested on: Neisseria flavescens 8263; test: MIC, human bacteria, serial dilution in nutrient agar; details: nutrient agar containing 5% 'chocolated' horse blood
[26] = tested on: Bord bronchisptica BO9; test: MIC, veterinary bacteria; details: veterinary bacteria (Table 2)
[27] = tested on: M pneumoniae ATCC 15492; test: MIC, anti-mycoplasmal, Friis' broth microtiter method
[28] = tested on: Strep pyogenes B 2788; test: MIC, human bacteria, serial dilution in nutrient agar; details: nutrient agar containing 5% 'chocolated' horse blood
[29] = tested on: M hyosynoviae ATCC 25591; test: MIC, anti-mycoplasmal, serial dilution in Friis' agar
[30] = tested on: Corynebacterium pyogenes CY1; test: MIC, veterinary bacteria; details: veterinary bacteria (Table 2)
[31] = tested on: Past multocida PA2; test: MIC, veterinary bacteria; details: veterinary bacteria (Table 2)
[32] = tested on: Staph aureus Russell; test: MIC, human bacteria, serial dilution in nutrient agar; details: nutrient agar containing 5% 'chocolated' horse blood
[33] = tested on: Sercina lutea 8340; test: as above; details: nutrient agar containing 5% 'chocolated' horse blood
[34] = tested on: M bovis NCTC 10131; test: MIC, anti-mycoplasmal, serial dilution in Friis' agar
[35] = tested on: M alkalescens NCTC 10135; test: as above
[36] = tested on: Strep pneumoniae CN33; test: MIC, human bacteria, serial dilution in nutrient agar; details: nutrient agar containing 5% 'chocolated' horse blood
[37] = tested on: Bord bronchiseptica BO8; test: MIC, veterinary bacteria; details: veterinary bacteria (Table 2)
[38] = tested on: Haemophilus influenzae Wy21; test: MIC, human bacteria, serial dilution in nutrient agar; details: nutrient agar containing 5% 'chocolated' horse blood
[39] = tested on: Staph aureus Oxford; test: MIC, veterinary bacteria; details: veterinary bacteria (Table 2)
[40] = tested on: M gallisepticum S6; test: MIC, anti-mycoplasmal, serial dilution in Friis' agar
[41] = tested on: E coli NCTC 10418; test: MIC, human bacteria, serial dilution in nutrient agar; details: nutrient agar containing 5% 'chocolated' horse blood
[42] = tested on: M suipneumoniae Str 11; test: MIC, anti-mycoplasmal, Friis' broth microtiter method
[43] = tested on: Staph aureus B4 (pen resis); test: MIC, veterinary bacteria; details: veterinary bacteria (Table 2)
[44] = tested on: M hyorhinis ATCC 23234; test: MIC, anti-mycoplasmal, serial dilution in Friis' agar
[45] = tested on: M bovis ATCC 25025; test: as above
[46] = tested on: M pulmonis JB; test: MIC, anti-mycoplasmal, Friis' broth microtiter method
[47] = tested on: Strep suis (group D) SPS11; test: MIC, veterinary bacteria; details: veterinary bacteria (Table 2)
[48] = tested on: S dublin S7; test: MIC, veterinary bacteria; details: veterinary bacteria (Table 2)
[49] = tested on: Strep agalactiae SPA1; test: MIC, veterinary bacteria; details: veterinary bacteria (Table 2)
[50] = tested on: M synoviae ATCC 25204; test: MIC, anti-mycoplasmal, serial dilution in Friis' agar
[51] = tested on: Strep dysgalaciae SPD1; test: MIC, veterinary bacteria; details: veterinary bacteria (Table 2)
[52] = tested on: M dispar H225; test: MIC, anti-mycoplasmal, Friis' broth microtiter method
[53] = tested on: M pneumoniae 427a; test: MIC, anti-mycoplasmal, serial dilution in Friis' agar
[54] = tested on: Staph aureus W2827; test: MIC, human bacteria, serial dilution in nutrient agar; details: nutrient agar containing 5% 'chocolated' horse blood
[55] = tested on: Strep faecalis I; test: as above; details: nutrient agar containing 5% 'chocolated' horse blood
[56] = tested on: M bovigenitalium ATCC 14173; test: MIC, anti-mycoplasmal, serial dilution in Friis' agar
[57] = tested on: Erysipelothrix rhusiopathiae NCTC 8163; test: MIC, veterinary bacteria; details: veterinary bacteria (Table 2)
[58] = tested on: Staph aureus 152 (pen sens); test: MIC, veterinary bacteria; details: veterinary bacteria (Table 2)
[59] = tested on: Ps aeruginosa 10662; test: MIC, human bacteria, serial dilution in nutrient agar; details: nutrient agar containing 5% 'chocolated' horse blood

Work on 8-Acetvloctyl Monate A [Example 3] yielded an MIC [1] of 0.2 µm/ml, an MIC [2] of over 80 mg/L and an MIC [3] of 0.2 µm/ml. The MIC [4] was over 100 µm/ml, the MIC [5] was over 80 mg/L and the MIC [6] was 0.07 mg/L. For the same substance, the “in vitro MIC, AGAR” value [7] was 1.25 mg/L, the “in vitro MIC, AGAR” value [8] was 2.5 mg/L and the MIC [9] was 0.1 µm/ml. For the same substance, the MIC [10] was 100 µm/ml, the “in vitro MIC, AGAR” value [11] was 0.039 mg/L and the MIC [12] was 1.0 µm/ml. For the same substance, the “in vitro MIC, BROTH” value [13] was under 0.02 mg/L, the “in vitro MIC, BROTH” value [14] was 0.156 mg/L and the MIC [15] was 0.5 µm/ml. For the same substance, the MIC [16] was 0.5 µm/ml, the MIC [17] was 2.5 mg/L and the MIC [18] was over 80 mg/L. The “in vitro MIC, BROTH” value [19] was under 0.02 mg/L, the “in vitro MIC, AGAR” value [20] was 0.039 mg/L and the MIC [21] was over 100 µm/ml. For the same substance, the “in vitro MIC, BROTH” value [22] was 0.312 mg/L, the MIC [23] was 0.2 µm/ml and the MIC [24] was 20 mg/L. For the same substance, the MIC [25] was 0.1 µm/ml, the MIC [26] was 5 mg/L and the “in vitro MIC, BROTH” value [27] was 0.312 mg/L. The MIC [28] was 0.5 µm/ml, the “in vitro MIC, AGAR” value [29] was 0.156 mg/L and the MIC [30] was over 80 mg/L. For the same substance, the MIC [31] was 0.156 mg/L, the MIC [32] was 9.5 µm/ml and the MIC [33] was over 100 µm/ml. For the same substance, the “in vitro MIC, AGAR” value [34] was at most 0.02 mg/L, the “in vitro MIC, AGAR” value [35] was 0.039 mg/L and the MIC [36] was 0.2 µm/ml. For the same substance, the MIC [37] was 20 mg/L, the MIC [38] was 0.2 µm/ml and the MIC [39] was 0.312 mg/L. The “in vitro MIC, AGAR” value [40] was 5.0 mg/L, the MIC [41] was 100 µm/ml and the “in vitro MIC, BROTH” value [42] was 0.039 mg/L. The MIC [43] was 0.312 mg/L, the “in vitro MIC, AGAR” value [44] was 0.625 mg/L and the “in vitro MIC, AGAR” value [45] was 0.039 mg/L. For the same substance, the “in vitro MIC, BROTH” value [46] was under 0.02 mg/L, the MIC [47] was 1.25 mg/L and the MIC [48] was over 80 mg/L. The MIC [49] was 0.625 mg/L, the “in vitro MIC, AGAR” value [50] was under 0.02 mg/L and the MIC [51] was 0.156 mg/L. The “in vitro MIC, BROTH” value [52] was 0.039 mg/L, the “in vitro MIC, AGAR” value [53] was 1.25 mg/L and the MIC [54] was 100 µm/ml. The MIC [55] was 100 µm/ml, the “in vitro MIC, AGAR” value [56] was 0.078 mg/L and the MIC [57] was 10 mg/L. For the same substance, the MIC [58] was 0.312 mg/L and the MIC [59] was over 100 µm/ml.
